Assay results as given in US20070004634A1 (Novo Nordisk A/S, priority 1998, published 2007).
No end group written: not given here.

How the values were obtained:
[1] = test system: free fat cells (adipocytes); assay: Adipocyte / free fat cell (FFC) assay, 3H glucose incorporation into lipid; conditions: FFC assay potency grade; 0, + to ++++++, −
Protocol: Incorporation of ^3H into the lipid phase was determined by partitioning of lipid phase into a scintillant mixture, which excludes water-soluble ^3H products.

[2] = target: IGF-1R (Homo sapiens, UniProt P08069); assay: Phage ELISA, binding of phage clones to IGF-1R (ratio over background); conditions: ratio of IGF-1R divided by ratio of IR
Protocol: (§1) HIT indicates binder; CAND indicates binder candidate; LDH indicates binding to lactate dehydrogenase (negative control); Sp/Irr indicates the ratio of specific binding over non-specific binding.
(§2) Sp/Irr=the ratio of specific binding over non-specific binding; LDH=lactate dehydrogenase (negative control).
(§3) For phage pools, cells from frozen stocks were grown and phage were prepared as described above. For analysis of individual clones, colonies were picked and phage prepared as described above. Subsequent steps were the same for pooled and clonal phage. Microtiter wells were coated and blocked as described above. […] Phage resuspended in MPBS (PBS containing 2% non-fat milk) were added to wells (100 μl/well) and incubated at room temperature for 1 h. The phage solution was then removed, and the wells were washed three times with PBS at room temperature.
(§4) Anti-M13 antibody conjugated to horseradish peroxidase (Pharmacia Biotech) was diluted 1:3000 in MPBS and added to each well (100 μl/well). Incubation was for another hour at room temperature, followed by PBS washes as described. Color was developed by addition of ABTS solution (100 μl/well; Boehringer). […] Data points were averaged after subtraction of appropriate blanks. A clone was considered “positive” if the A405 of the well was ≧2-fold over background.

[3] = target: IR (Homo sapiens, UniProt P06213); assay: Phage ELISA, binding of phage clones to IR (ratio over background); conditions: ratio of IR divided by ratio of IGF-1R
Protocol: as §1, §2, §3, §4

| Compound | FFC [1] | Comparisons IGF-1R/IR [2] | Comparisons IR/IGF-1R [3] |
| --- | --- | --- | --- |
| CC(C)[C@H](NC(=O)[C@H](Cc1ccccc1)NC(=O)[C@H](Cc1c[nH]c2ccccc12)NC(=O)[C@H](CC(=O)O)NC(=O)[C@H](Cc1ccc(O)cc1)NC(=O)[C@H](Cc1ccccc1)NC(=O)[C@H](CC(N)=O)NC(=O)[C@H](CCC(=O)O)NC(=O)[C@H](Cc1c[nH]cn1)NC(=O)[C@@H](N)Cc1ccccc1)C(=O)N[C@@H](CCCNC(=N)N)C(=O)N[C@@H](CCC(N)=O)C(=O)N[C@H](C(=O)N[C@@H](CO)C(=O)N[C@@H](CCCCN)C(=O)N[C@@H](CCCCN)C(=O)NC[C@H](NC(=O)[C@H](CCCCN)NC(=O)[C@H](CCCCN)NC(=O)[C@H](CO)NC(=O)[C@@H](NC(=O)[C@H](CCC(N)=O)NC(=O)[C@H](CCCNC(=N)N)NC(=O)[C@@H](NC(=O)[C@H](Cc1ccccc1)NC(=O)[C@H](Cc1c[nH]c2ccccc12)NC(=O)[C@H](CC(=O)O)NC(=O)[C@H](Cc1ccc(O)cc1)NC(=O)[C@H](Cc1ccccc1)NC(=O)[C@H](CC(N)=O)NC(=O)[C@H](CCC(=O)O)NC(=O)[C@H](Cc1c[nH]cn1)NC(=O)[C@@H](N)Cc1ccccc1)C(C)C)C(C)C)C(=O)O)C(C)C [Peptide S128] | ++ | – | – |
| PVGVQGFYEGLSRLVLGRGGW [20E2B-4-F8-IGFR] | – | 9.7 | 0.1 |
| QAVQPGFHEEFYDWFVRQVSTGVGGG [H2CA-4-H4-IGFR] | – | 4.2 | 0.2 |
| QFYGCLLDLSLGVPSFGWRRRCITA [20C-3-A4-IGFR] | – | 7.6 | 0.1 |
| QGGSASFYDAIDRLLRMRIGG [20E2A-4-F11-IGFR] | – | 14.6 | 0.1 |
| QGNVLDFYGWIGRLLAKQGSD [20E2B-3-D12-IGFR] | – | 7.3 | 0.1 |
| QPAPDGFYSALMKLIGRGGVS [20E2B-3-C8-IGFR] | – | 8.9 | 0.1 |
| QPDHSYFYSLLQELVGSEERL [20E2B-4-F9-IGFR] | – | 7.7 | 0.1 |
| QSGSGDFYDWLSRLIRGNGDG [20E2Bβ-3-C7-IR] | – | 2.0 | 0.5 |
| QSPVGSSHEDFYDWFFRQVAQSGAHQ [H2CA-3-D6-IGFR] | – | 4.0 | 0.3 |
| RAGSSDFHEDFYEWFVRQVSLSLKGK [H2CA-2-B9-IGFR] | – | 4.2 | 0.2 |
| RCEEKQAEVGPSSDPFYHKMSELLGCR [Peptide B6Hα-3-E9-IR] | – | 14.2 | 0.1 |
| RCGDEEGWQENRRDDPFYHKLSELFGGC [Peptide B6Hα-3-E5-IR] | – | 2.9 | 0.3 |
| RCGRELYHSTFYDWFDRQVAGRTCPS [H2CA-1-A7-IGFR] | – | 3.7 | 0.3 |
| RCGRW*AEMGAGDDPFYHKLSELVCG (RCGRWXAEMGAGDDPFYHKLSELVCG; not fully specified; X: residue not identified in the source; cysteine pairing not given here) [Peptide B6Hα-2-C4-IR] | – | 11.0 | 0.1 |
| RCQGTGFYTCIQELIGFGDPD [20E2B-4-H9-IGFR] | – | 5.6 | 0.2 |
| RFDPFYSYFVNLLGASA [NNRPγ-4-A7-IR] | – | 4.9 | 0.2 |
| RFSTDGFYQYLLALVGGGPVG [20E2B-1-A11-IGFR] | – | 9.7 | 0.1 |
| RGAVAGFHDQFYDWFDRQVSRVHKFG [H2CA-4-H9-IGFR] | – | 3.0 | 0.3 |
| RGIVAMVEATEVGSDHPFYHKLSELVQGS [Peptide B6Hα-2-C7-IR] | – | 6.7 | 0.1 |
| RGKTAAVIVGRPADPFYHKLSELLQGG [Peptide B6Hα-3-E8-IR] | – | 4.8 | 0.2 |
| RGMKEEVLVGGSTDPFYHKLSELLQGS [B6Hα-3-F11-IR] | – | 11.7 | 0.1 |
| RGQSDAFYSGLWALIGLSDG [Peptide R20β-4-A6-IR] | – | 17.3 | 0.1 |
| RLFYCGIQALGANLGYSGCV [R20α-4-20A12-IR] | – | 16.6 | 0.1 |
| RQGTGSFYLMLEQLLVGARGP [20E2B-4-G11-IGFR] | – | 7.0 | 0.1 |

| Compound | FFC [1] | Comparisons IGF-1R/IR [2] | Comparisons IR/IGF-1R [3] |
| --- | --- | --- | --- |
| SACQFDCHENFYDWFARQVSGGAAYG [H2CA-4-H8-IGFR] | – | 9.4 | 0.1 |
| SGAKVIVVTGDSGDPFYHKLSELLQGS [B6Hα-2-C10-IR] | – | 5.3 | 0.2 |
| SQAGSAFYAWFDQVLRTVHSA [20E2Bβ-4-G6-IR] | – | 3.3 | 0.3 |
| SRAKVEAEMPDSGDPFYHKLSELLASG [Peptide B6Hα-1-A3-IR] | – | 3.3 | 0.3 |
| SRVAATKEKRPSDDPFYHKLSELLQGS [Peptide B6Hα-3-F7-IR] | – | 3.1 | 0.3 |
| SSCDGAGHESFYEWFVRQVSGCRSV [H2CA-3-C8-IGFR] | – | 4.8 | 0.2 |
| SSETAKMVTGTRDDPFYHKLSELVQGS [Peptide B6Hα-D8-IR] | – | 3.0 | 0.3 |
| SSIGGGEHENFYDWFSRQLSQSPPLK [H2CA-4-F7-IGFR] | – | 4.1 | 0.2 |
| SSYGCDGFYLMLFSLGLVASQELEC [20C-3-A1-IGFR] | – | 13.7 | 0.1 |
| TFYSCLASLLTGTPQPNRGPWERCR [20C-3-G3-IGFR] | – | 27.0 | <0.1 |
| TLDGGSFEEQFYDWFVRQLSYRTNPD [H2CA-4-G11-IGFR] | – | 3.9 | 0.3 |
| TLRSPTFYDWLEMVLTHGQGG [20E2B-1-A8-IGFR] | – | 5.0 | 0.2 |
| TSEVQRRSQDNFYDWFVAQVA [Peptide A6S-3-E2-IR] | – | 2.5 | 0.4 |
| VATSQGFYSGLSELLQGGGNV [20E2B-3-E12-IGFR] | – | 7.3 | 0.1 |
| VDTPAQVGWNRLWSVGPGEHWYTDDPFYH*LSELLRESGA [Peptide B6L-3-G6-IR] | – | 1.4 | 0.7 |
| VERSASSQDGNFYDWFVVQIR [Peptide A6S-2-D1-IR] | – | 2.6 | 0.4 |
| VGYQGQGDENFYDWFIRQVSGRLGVQ [H2CA-4-F5-IGFR] | – | 12.3 | 0.1 |
| VNQSGSIHENFYDWFERQVSHQRGVR [H2CA-4-F10-IGFR] | – | 5.9 | 0.2 |
| VVTPVNFYRALEALVRG.RLG (VVTPVNFYRALEALVRGXRLG; not fully specified; printed as VVTPVNFYRALEALVRG.RLG; X: residue not identified in the source; ends and bridges not checked) [20E2B-2-B11-IGFR] | – | 9.4 | 0.1 |
| W.GYAWLS [40F-4-D10-IGFR] | – | 11.7 | 0.1 |
| YRGMLVLGRISDGAG#VASEPPARIGRKVFAVNFYDWFV [Peptide A6L-0-E4-IR] | – | 13.0 | 0.1 |
| YRGMLVLGRISGGAGKAASERPARIGQKVSAVNFYDWFV [Peptide A6L-0-H3-IR] | – | 13.0 | 0.1 |
| YRGMLVLGRSSDGAGKVAFERPARIGQTVFAVNFYDWFV [Peptide A6L-0-E6-IR] | – | 17.0 | 0.1 |
| YSCGDGFYSLLSDLLGGQFRC [20E2B-4-H12-IGFR] | – | 12.8 | 0.1 |
